Experimental data reported in patent US20250296959A1, “B7-H3 TARGETING PEPTIDES AND CONSTRUCTS THEREOF” (Mariana Oncology Inc., priority 2024, published 2025).
Read-outs that look alike come from different tables or passages of the source. Starred links: 1 amine or outer side, 2 acyl side, 3 side chain; linkers in the order of their positions; H or OH if unused. Positions of bridges follow the written chain, without caps; N, C: chain ends. Non-standard residues stand in square brackets, D forms with d. Residues, ends and D or L forms follow the SMILES beside them. Groups on a side chain read outwards from the residue. *: point of attachment. X2 = O=C(O)CN1CCN(CC(=O)O)CCN(CC(=O)NCCOCCOCCOCCOCC(=O)*)CCN(CC(=O)O)CC1; Ala(1-CH2CO2H-4-piperidyl) = N[C@@H](CC1CCN(CC(=O)O)CC1)C(=O)O; Ala(piperidin-4-yl) = O=C([C@H](CC1CCN([*:3])CC1)N[*:1])[*:2]; DOTA = O=C(O)CN1CCN(CC(=O)O)CCN(CC(=O)*)CCN(CC(=O)O)CC1; Trp(5-F) = N[C@@H](Cc1c[nH]c2ccc(F)cc12)C(=O)O; γGlu = O=C(O)[C@H](CCC(=O)[*:2])N[*:1]; 1Nal = N[C@@H](Cc1cccc2ccccc12)C(=O)O; Ala(4-THP) = N[C@@H](CC1CCOCC1)C(=O)O; Val(3-OH) = CC(C)(O)[C@H](N)C(=O)O; 4Pal = N[C@@H](Cc1ccncc1)C(=O)O; PEG4 = NCCOCCOCCOCCOCCC(=O)O; Tle = CC(C)(C)[C@H](N)C(=O)O; hLeu = CC(C)CC[C@H](N)C(=O)O; Sar = CNCC(=O)O

What was measured:
[1] = system: Calu-6 cell line; test: Net internalization of [177Lu]Lu-labeled peptide in Calu-6 cells; assay type: cell-based, Human; conditions: 1 hour, 37° C., glycine pH 2.5 acid wash
Experimental: (§1) [^177Lu]LuCl3 was received from venders in HCl solution. For every mCi of [^177Lu]LuCl3 added to the reaction vial (1.5 mL Eppendorf vial), ammonium acetate buffer (0.2 M, pH 4.9, 100 μL, containing 1% w/v ascorbic acid and 6% v/v ethanol) and peptide conjugate (1 nmol) was added. The pH of the solution was determined to be approximately 5 by using pH strips. The reaction vial was incubated at 80° C., 700 RPM for 17-20 minutes. A sample from the reaction was analyzed by RP-HPLC using an Agilent Infinity II 1260 HPLC to determine reaction completion and radiochemical purity. HPLC conditions: Waters XBridge BEH C18 Column, 130 Å, 3.5 μm, 4.6 mm×250 mm; mobile phase: Solvent A=water (with 0.1% formic acid), solvent B=acetonitrile (with 0.1% formic acid). Gradients: 25-45% B in 10 minutes, 45-65% B in 12 minutes, 65-90% in 6 minutes at a flow rate of 0.5 mL/minute. Required amounts of the product were formulated in 1% PBSA for cell studies.
(§2) The study was conducted using Calu-6 cell line (Table 8)
(§3) Adherent cell studies: The cells were cultured in appropriate culture media (20 mL) in tissue culture treated T150 flasks at 37° C. and 5% CO2. Adherent cells were detached (60-70% confluent) using 5 mL Versene at 37° C. for 3 minutes. After confirming the viability using countess and count of detached cells using Trypan blue, the cells were centrifuged at 4° C. for 5 minutes (1,000 revolutions per minute). The cell pellet obtained was washed once with PBS and resuspended in 1% PBSA to obtain the desired cell concentration (5 million cells/mL).
Net internalization: The resuspended cells in 300 μl of 1% PBSA and counted in the gamma counter as “bound fraction” were collected in 1.5 mL Eppendorf tube and pelleted. The pelleted cells were incubated with 300 μl of 50 mM Glycine pH=2.5 for 3 minutes and then pelleted discarding the supernatant. This process was repeated one more time. The pelleted cells were washed with 300 μl of cold 1% PBSA and then resuspended in 300 μl 0.3 M NaOH. This was counted in the gamma counter as “internalized fraction”.
(§4) Calu-6 Cells are Human-Derived, Non-Engineered Lung Cancer Cell that Express B7-H3.

[2] = target: T1, human 4lg B7-H3 (Homo sapiens, UniProt Q5ZPR3); test: Affinity determination by surface plasmon resonance (SPR) to 4Ig B7-H3; conditions: 4Ig B7-H3
T1 sequence (Q5ZPR3 29-534): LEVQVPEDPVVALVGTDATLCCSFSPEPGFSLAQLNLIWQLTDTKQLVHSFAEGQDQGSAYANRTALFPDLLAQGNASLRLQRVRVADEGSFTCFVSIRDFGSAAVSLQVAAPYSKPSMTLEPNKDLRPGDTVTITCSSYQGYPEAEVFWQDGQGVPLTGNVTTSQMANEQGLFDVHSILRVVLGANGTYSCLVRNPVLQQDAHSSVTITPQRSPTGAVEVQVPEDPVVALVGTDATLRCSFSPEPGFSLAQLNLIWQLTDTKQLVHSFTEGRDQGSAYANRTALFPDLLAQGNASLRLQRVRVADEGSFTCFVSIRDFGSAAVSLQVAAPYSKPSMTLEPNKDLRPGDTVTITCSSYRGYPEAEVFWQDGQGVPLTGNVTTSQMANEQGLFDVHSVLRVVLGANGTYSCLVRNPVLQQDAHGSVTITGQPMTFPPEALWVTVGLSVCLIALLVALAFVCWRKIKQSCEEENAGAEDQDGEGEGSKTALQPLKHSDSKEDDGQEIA

[3] = system: Calu-6 cell line; test: Cell associated (bound) fraction of [177Lu]Lu-labeled peptide in Calu-6 cells; assay type: cell-based, Human; conditions: 1 hour, 37° C.
Experimental: as §1, §2, §3
Cell associated fraction: Cells were incubated with 300 μL (0.8 μCi) of the incubation buffer (containing radiolabeled peptide [^177Lu]Lu-test peptide) for 1 hour at 37 C (Table 9). Post incubation, the cells were pelleted and washed 2 times using cold PBS+1% BSA. The supernatant and washes were combined and counted together as “unbound fraction” in a gamma counter. The cells were then resuspended in 300 μL of 1% PBS+1% BSA and counted in the gamma counter as cell associated fraction (or bound fraction).
as §4

[4] = read-out: SPR KD—25° C., 25° C. flow cell temperature
[5] = SPR KD—25° C., 25° C. flow cell temperature
[6] = read-out: SPR KD—37° C., 37° C. flow cell temperature

SMILES | % net internalization [1] | Kd [2, 4] | % cell associated fraction [3] | Kd [2, 5] | Kd [2, 6]
CC(=O)N[C@@H](CCC(C)C)C(=O)N[C@@H](Cc1ccc(O)cc1)C(=O)N[C@H]1CSSC[C@@H](C(=O)N[C@@H](Cc2c[nH]c3ccc(F)cc23)C(=O)N[C@@H](Cc2ccccc2)C(=O)N[C@H](C(=O)N[C@H](CCCCNC(=O)CN2CCN(CC(=O)O)CCN(CC(=O)O)CCN(CC(=O)O)CC2)C(N)=O)[C@@H](C)O)NC(=O)[C@H](Cc2ccc(O)cc2)NC(=O)[C@H](C(C)C)NC(=O)[C@H](CC(=O)O)NC(=O)[C@H](Cc2ccc(O)cc2)NC(=O)[C@H](CCCCN)NC(=O)CN(C)C(=O)[C@H](C(C)C)NC1=O [compound 77, Ac-hLeu-Y-C-V-Sar-K-Y-D-V-Y-C-5FW-F-Thr-dLys(DOTA)-CONH2] (Ac-[hLeu]YCV[Sar]KYDVYC[Trp(5-F)]FT[dK](DOTA)-NH2; disulfide 3-11) | A (%≤25) | 1 to 10 nM | C (%>50) | – | –
CC(=O)N[C@@H](CCC(C)C)C(=O)N[C@@H](Cc1ccc(O)cc1)C(=O)N[C@H]1CSSC[C@@H](C(=O)N[C@@H](Cc2cccc3ccccc23)C(=O)N[C@@H](Cc2ccccc2)C(=O)N2CCC[C@H]2C(N)=O)NC(=O)[C@H](Cc2ccc(O)cc2)NC(=O)[C@H](C(C)C)NC(=O)[C@H](CC(=O)O)NC(=O)[C@H](Cc2ccncc2)NC(=O)[C@H](CCCCNC(=O)CC[C@H](NC(=O)CC[C@H](NC(=O)CN2CCN(CC(=O)O)CCN(CC(=O)O)CCN(CC(=O)O)CC2)C(=O)O)C(=O)O)NC(=O)CNC(=O)[C@H](C(C)(C)C)NC1=O [compound 253, Ac-hLeu-Y-C-Tbg-G-Lys(gE-gE-DOTA)-4PyA-D-V-Y-C-1Nal-F-Pro-CONH2] (Ac-[hLeu]YC[Tle]GK([γGlu-γGlu-DOTA])[4Pal]DVYC[1Nal]FP-NH2; disulfide 3-11) | A (%≤25) | – | A (%≤25) | 1 to 10 nM | –
CC[C@H](C)[C@@H]1NC(=O)[C@@H](NC(=O)[C@H](Cc2ccc(O)cc2)NC(=O)[C@H](CCC(C)C)NC(C)=O)CSSC[C@@H](C(=O)N[C@@H](Cc2c[nH]c3ccc(F)cc23)C(=O)N[C@@H](Cc2ccccc2)C(=O)N[C@H](C(=O)N[C@H](CCCCNC(=O)CN2CCN(CC(=O)O)CCN(CC(=O)O)CCN(CC(=O)O)CC2)C(=O)O)C(C)(C)O)NC(=O)[C@H](Cc2ccc(O)cc2)NC(=O)[C@H](C(C)C)NC(=O)[C@H](CC(=O)O)NC(=O)[C@H](CC2CCOCC2)NC(=O)[C@H](CC2CCN(CC(=O)O)CC2)NC(=O)CNC1=O [compound 318, Ac-hLeu-Y-C-Ile-G-[Pip(CH2CO2H)Ala]-ThpA-D-V-Y-C-5FW-F-hydroxyVal-dLys(DOTA)-COOH] (Ac-[hLeu]YCIG[Ala(1-CH2CO2H-4-piperidyl)][Ala(4-THP)]DVYC[Trp(5-F)]F[Val(3-OH)][dK](DOTA)-OH; disulfide 3-11) | A (%≤25) | – | B (25<%≤50) | – | 1 to 10 nM
CC(=O)N[C@@H](CCC(C)C)C(=O)N[C@@H](Cc1ccc(O)cc1)C(=O)N[C@H]1CSSC[C@@H](C(=O)N[C@@H](Cc2c[nH]c3ccc(F)cc23)C(=O)N[C@@H](Cc2ccccc2)C(=O)N2CCC[C@H]2C(=O)N[C@H](CCCCNC(=O)COCCOCCOCCOCCNC(=O)CN2CCN(CC(=O)O)CCN(CC(=O)O)CCN(CC(=O)O)CC2)C(N)=O)NC(=O)[C@H](Cc2ccc(O)cc2)NC(=O)[C@H](C(C)C)NC(=O)[C@H](CC(=O)O)NC(=O)[C@H](CC2CCOCC2)NC(=O)[C@H](CCCCN)NC(=O)CNC(=O)[C@H](C(C)C)NC1=O [compound 282, Ac-hLeu-Y-C-V-G-K-ThpA-D-V-Y-C-5FW-F-Pro-dLys(PEG4-DOTA)-CONH2] (Ac-[hLeu]YCVGK[Ala(4-THP)]DVYC[Trp(5-F)]FP[dK](X2)-NH2; disulfide 3-11) | A (%≤25) | – | B (25<%≤50) | < 1 nM | –
CC(=O)N[C@@H](CCC(C)C)C(=O)N[C@@H](Cc1ccc(O)cc1)C(=O)N[C@H]1CSSC[C@@H](C(=O)N[C@@H](Cc2c[nH]c3ccc(F)cc23)C(=O)N[C@@H](Cc2ccccc2)C(=O)N[C@H](C(=O)N[C@H](CCCCNC(=O)CCOCCOCCOCCOCCNC(=O)CN2CCN(CC(=O)O)CCN(CC(=O)O)CCN(CC(=O)O)CC2)C(=O)O)C(C)(C)O)NC(=O)[C@H](Cc2ccc(O)cc2)NC(=O)[C@H](C(C)C)NC(=O)[C@H](CC(=O)O)NC(=O)[C@H](CC2CCOCC2)NC(=O)[C@H](CC2CCNCC2)NC(=O)CNC(=O)[C@H](C(C)(C)C)NC1=O [compound 465, Ac-hLeu-Y-C-Tbg-G-PipAla-ThpA-D-V-Y-C-5FW-F-hydroxyVal-dLys(PEG4-DOTA)-COOH] (Ac-[hLeu]YC[Tle]G[Ala(piperidin-4-yl)][Ala(4-THP)]DVYC[Trp(5-F)]F[Val(3-OH)][dK]([PEG4-DOTA])-OH; disulfide 3-11) | A (%≤25) | – | B (25<%≤50) | – | < 1 nM
CC(=O)N[C@@H](CCC(C)C)C(=O)N[C@@H](Cc1ccc(O)cc1)C(=O)N[C@H]1CSSC[C@@H](C(=O)N[C@@H](Cc2c[nH]c3ccc(F)cc23)C(=O)N[C@@H](Cc2ccccc2)C(=O)N2CCC[C@H]2C(=O)N[C@H](CCCCNC(=O)CN2CCN(CC(=O)O)CCN(CC(=O)O)CCN(CC(=O)O)CC2)C(=O)O)NC(=O)[C@H](Cc2ccc(O)cc2)NC(=O)[C@H](C(C)C)NC(=O)[C@H](CC(=O)O)NC(=O)[C@H](CC2CCOCC2)NC(=O)[C@H](CCCCN)NC(=O)CNC(=O)[C@H](C(C)C)NC1=O [compound 288, Ac-hLeu-Y-C-V-G-K-ThpA-D-V-Y-C-5FW-F-Pro-dLys(DOTA)-COOH] (Ac-[hLeu]YCVGK[Ala(4-THP)]DVYC[Trp(5-F)]FP[dK](DOTA)-OH; disulfide 3-11) | A (%≤25) | < 1 nM | B (25<%≤50) | – | –
CC(=O)N[C@@H](CCC(C)C)C(=O)N[C@@H](Cc1ccc(O)cc1)C(=O)N[C@H]1CSSC[C@@H](C(=O)N[C@@H](Cc2c[nH]c3ccc(F)cc23)C(=O)N[C@@H](Cc2ccccc2)C(=O)N[C@H](C(=O)N[C@H](C)C(N)=O)C(C)(C)O)NC(=O)[C@H](Cc2ccc(O)cc2)NC(=O)[C@H](C(C)C)NC(=O)[C@H](CC(=O)O)NC(=O)[C@H](CC2CCOCC2)NC(=O)[C@H](CC2CCN(C(=O)CCOCCOCCOCCOCCNC(=O)CN3CCN(CC(=O)O)CCN(CC(=O)O)CCN(CC(=O)O)CC3)CC2)NC(=O)CNC(=O)[C@H](C(C)(C)C)NC1=O [compound 384, Ac-hLeu-Y-C-Tbg-G-Pip(PEG4-DOTA)Ala-ThpA-D-V-Y-C-5FW-F-hydroxyVal-dAla-CONH2] (Ac-[hLeu]YC[Tle]G[Ala(piperidin-4-yl)]([PEG4-DOTA])[Ala(4-THP)]DVYC[Trp(5-F)]F[Val(3-OH)][dA]-NH2; disulfide 3-11) | A (%≤25) | – | B (25<%≤50) | – | < 1 nM
